Values quoted from earlier work as cited in paper PMC12285096, “Tirzepatide mitigates Stroke-Induced Blood-Brain barrier disruption by modulating Claudin-1 and C/EBP-α pathways” (Molecular Medicine, 2025).

Settings: cited from earlier work; for BBB penetration (Kp, brain): limited BBB penetration of GLP-1 analogs, ref Rhea et al. [2024], Lee et al. [2023], Hunter and Hölscher [2012], Secher et al. [2014]

Substance: liraglutide
- Brain-to-plasma ratio (Kp, brain) (in vivo): 0.03 ± 0.01
- BBB penetration (Kp, brain): 0.02–0.05

Substance: semaglutide
- BBB penetration (Kp, brain): 0.02–0.05
